Experimental findings from PubChem BioAssay (NCI) are described below.

Values joined by “and” are separate entries in the source; they are usually repeats but may differ in a detail not shown here. Identical values can stand only once.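 Growth conditions: 96-well plates. Treatment: test compound, 48 hours, 5 concentrations. Analysis: linear interpolation between bracketing concentrations; unreached endpoints set to highest concentration. GI50 is the concentration that inhibits growth by half. The concentration for full growth arrest is given as TGI.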

The test deals with MDA-MB-468 breast. In words: NCI anticancer screen, dose series, 48 h.
As to `CN1C(=O)c2cc(Cl)nc3c(NC(=O)c4cccc(Cl)c4)c(Cl)c(NC(=O)c4cccc(Cl)c4)c1c23`, the GI50 was 1990 nM and the TGI came out at 6050 nM. The like results for `CCCC/C(=N\N=C(N)N)c1ccc(F)cc1` were, in that order, 590 nM and 5810 nM. The like results for `COc1ccc(/C=C\c2cc(OC)c(OC)c(OC)c2)cc1OP(=O)(O)O` were, in that order, 54.3 nM and over 100000 nM. Consider `O=C1C=C(Nc2cccc(Br)c2)c2ccccc2C1=O`, for which the GI50 is 17600 nM and the TGI came to 83800 nM. The like results for `Cc1ccc(NCSc2ccc(Cl)cc2)cc1` were, in that order, 2680 nM and 8050 nM. For the compound `CCOC(=O)c1[nH]c2c(c1C)-c1[nH]c(=O)c(S(=O)(=O)c3ccccc3)cc1SC2`, the GI50 is 54000 nM and the TGI is over 100000 nM. The like results for `O=C1c2cccnc2C(=O)c2c1c(C(=O)OCCCN1CCOCC1)c1ccccn21` were, in that order, 1390 nM and 7100 nM. On the same counts, the results for `COc1ccccc1C(=O)c1cnc(NC2CCN(S(C)(=O)=O)CC2)nc1N` are 7790 nM and over 25000 nM. The like results for `COc1ccccc1Cn1cc2c(c1)-c1oncc1CC2` were, in that order, 217 nM and 697 nM.

For `CC1Cc2c(N(C)C)ncnc2N(C)c2ccc(Cl)cc21` (centres undefined), the GI50 was 2660 nM and the TGI stood at 67700 nM. As to `CCCCCCCCCCCCCCCC[N+]1(CC)CCCC1`, the GI50 was 184 nM and the TGI is 799 nM. The like results for `COc1ccc2nc3ccc(OC)cc3c(SCCCN)c2c1` were, in that order, 1400 nM and 2940 nM.

Consider `NS(=O)(=O)c1ccc(Nc2nc(Nc3ccccc3)nc(-n3nc(-c4ccccc4)cc3-c3ccccc3)n2)cc1`, for which the GI50 is 2310 nM and the TGI is 6950 nM. Turning to `COc1cc(C2C3=C(COC3=O)N(CCO)c3cc4c(cc32)CCC4)cc(OC)c1O` (centres undefined), the GI50 was 89.1 nM. Consider `Cc1nn(-c2ccccc2)c2c1C1C(=C(c3ccc(Cl)cc3)N2)C(=O)Nc2ccccc21` (centres undefined), for which the GI50 was 3340 nM and the TGI is 19500 nM. For `Cc1nnc([S-])s1.[Au+].c1ccc([PH+](c2ccccc2)c2ccccc2)cc1`, the GI50 is 1270 nM and the TGI stood at 2860 nM. On the same counts, the results for `CC[C@]12C=CCN3CC[C@]4(C(=C(C(=O)OC)C1)Nc1cc(O)ccc14)[C@@H]32` are 9380 nM and 44000 nM. As for `Cc1ccc([P+](Cc2ccc([N+](=O)[O-])cc2)(c2ccc(C)cc2)c2ccc(C)cc2)cc1`, the GI50 was 660 nM and the TGI was found to be 5800 nM. The like results for `COC(=O)c1cc(Nc2ccc(O)c3c2C(=O)c2c([N+](=O)[O-])ccc(O)c2C3=O)cc(C(=O)OC)c1` were, in that order, 16500 nM and 98500 nM. Consider `Cn1c(=O)n(-c2ccc(C(C)(C)C#N)cc2)c2c3cc(-c4cnc5ccccc5c4)ccc3ncc21`, for which the GI50 was 11.8 nM and 5.31 nM and < 10.5 nM; the TGI was 50.5 nM and 28.5 nM and 64.2 nM. `N#CC1c2ccccc2-c2ccccc2N1C(=O)c1ccccc1` (centres undefined): the GI50 was 383 nM and the TGI is over 26100 nM.

As for `CCN(CC)CCC(=O)Nc1ccc(Cn2nnc3c2C(=O)c2nnn(Cc4ccc(NC(=O)CCN(CC)CC)cc4)c2C3=O)cc1`, the GI50 was 170 nM and the TGI is 374 nM.

For `Oc1ccc(-c2nnc(SCc3ccc(O)c4ncccc34)o2)cc1`, the GI50 was 2000 nM and the TGI was 8060 nM. On the same counts, the results for `C/C(=C(/c1ccc(O)cc1)c1ccc(OCCN2CCCC2)cc1)c1ccccc1` are 1840 nM and 4470 nM.

With `O=C1OC(c2ccc(O)cc2)(c2ccc(O)cc2)c2cccc3cccc1c23`, the GI50 is 4060 nM and the TGI amounted to 21700 nM. On the same counts, the results for `Nc1ncnc2occ(-c3ccc(NC(=O)Nc4cc(C(F)(F)F)cc(C(F)(F)F)c4)cc3)c12` are 2750 nM and 7810 nM. On the same counts, the results for `Oc1ccc(CSc2nnc(-c3cnccn3)o2)c2cccnc12` are 639 nM and 7800 nM. On the same counts, the results for `COC(=O)[C@H](Cc1ccccc1)NC(=O)c1csc([C@@H](C[C@H](C(C)C)N(C)C(=O)[C@@H](NC(=O)[C@H]2CCCCN2C)C2CC2)OC(C)=O)n1` are 44.1 nM and over 25000 nM. Regarding `COc1cccc(-c2nn(-c3ccccc3)cc2-c2ccnc(NCCNC(=O)Nc3ccc(Cl)c(Cl)c3)c2)c1`, the GI50 was 1700 nM and the TGI was determined as 4540 nM.

As for `COc1cc[nH]c1/C=C1\C(=O)Nc2ccc(F)c(C#CC3(O)CCOCC3)c21`, the GI50 was 710 nM and the TGI came to 2900 nM.
